Test results: ChEMBL document CHEMBL4190365, “Synthesis and antiproliferative properties of new hydrophilic esters of triterpenic acids” (Eur J Med Chem, 2017)
Active and inactive are the calls of the source. The rule behind the calls is not given here.

Legend:
G-361 [1] = assay: Induction of apoptosis in human G361 cells assessed as effect on Bcl2 protein levels at 1 uM incubated for 24 hrs by Western blot method; type: functional, cell-based
G-361 [2] = assay: Induction of apoptosis in human G361 cells assessed as induction of PARP cleavage at 10 uM incubated for 24 hrs by Western blot method; type: functional, cell-based
G-361 [3] = assay: Cytotoxicity in human G361 cells assessed as reduction in cell viability incubated for 72 hrs by calcein AM cytotoxicity assay; type: functional, cell-based; details: Homo sapiens, G-361, 72 h
CCRF-CEM = assay: Cytotoxicity in human CEM cells assessed as reduction in cell viability incubated for 72 hrs by calcein AM cytotoxicity assay; type: functional, cell-based
G-361 [4] = assay: Induction of apoptosis in human G361 cells assessed as induction of caspase-3 expression at 10 uM incubated for 24 hrs by Western blot method; type: functional, cell-based
G-361 [5] = assay: Induction of cell cycle arrest in human G361 cells assessed as increase in accumulation at G0/G1 phase at 10 uM incubated for 24 hrs by propidium iodide staining based flow cytometry; type: functional
G-361 [6] = assay: Induction of apoptosis in human G361 cells assessed as increase in caspase3/7 activity at 1 uM using Ac-DEVD-AMC substrate incubated for 24 hrs by fluorometric assay relative to untreated control; type: functional
G-361 [7] = assay: Induction of apoptosis in human G361 cells assessed as reduction total Rb protein levels at 10 uM incubated for 24 hrs by Western blot method; type: functional, cell-based
G-361 [8] = assay: Induction of apoptosis in human G361 cells assessed as induction of caspase-3 expression at 1 uM incubated for 24 hrs by Western blot method; type: functional, cell-based
G-361 [9] = assay: Induction of apoptosis in human G361 cells assessed as effect on Bcl2 protein levels at 10 uM incubated for 24 hrs by Western blot method; type: functional, cell-based
G-361 [10] = assay: Induction of cell cycle arrest in human G361 cells assessed as reduction in accumulation at G2M phase at 1 uM incubated for 24 hrs by propidium iodide staining based flow cytometry; type: functional
G-361 [11] = assay: Induction of apoptosis in human G361 cells assessed as induction of caspase-7 degradation in to cleaved fragments at 10 uM incubated for 24 hrs by Western blot method; type: functional, cell-based
MCF7 = assay: Cytotoxicity in human MCF7 cells assessed as reduction in cell viability incubated for 72 hrs by calcein AM cytotoxicity assay; type: functional, cell-based; details: Homo sapiens, MCF7, 72 h
BJ = assay: Cytotoxicity in human BJ cells assessed as reduction in cell viability incubated for 72 hrs by calcein AM cytotoxicity assay; type: functional, cell-based; details: Homo sapiens, BJ, 72 h
HeLa = assay: Cytotoxicity in human HeLa cells assessed as reduction in cell viability incubated for 72 hrs by calcein AM cytotoxicity assay; type: functional, cell-based; details: Homo sapiens, HeLa, 72 h
G-361 [12] = assay: Induction of cell cycle arrest in human G361 cells assessed as reduction in accumulation at G2M phase at 10 uM incubated for 24 hrs by propidium iodide staining based flow cytometry; type: functional
G-361 [13] = assay: Induction of apoptosis in human G361 cells assessed as induction of caspase-7 degradation in to cleaved fragments at 1 uM incubated for 24 hrs by Western blot method; type: functional, cell-based
G-361 [14] = assay: Induction of cell cycle arrest in human G361 cells assessed as increase in accumulation at G0/G1 phase at 1 uM incubated for 24 hrs by propidium iodide staining based flow cytometry; type: functional
G-361 [15] = assay: Induction of apoptosis in human G361 cells assessed as reduction Mcl1 protein levels at 10 uM incubated for 24 hrs by Western blot method; type: functional, cell-based
G-361 [16] = assay: Induction of cell cycle arrest in human G361 cells assessed as increase in accumulation at subG1 phase at 1 uM incubated for 24 hrs by propidium iodide staining based flow cytometry; type: functional
G-361 [17] = assay: Induction of cell cycle arrest in human G361 cells assessed as increase in accumulation at subG1 phase at 10 uM incubated for 24 hrs by propidium iodide staining based flow cytometry; type: functional
G-361 [18] = assay: Induction of apoptosis in human G361 cells assessed as reduction Mcl1 protein levels at 1 uM incubated for 24 hrs by Western blot method; type: functional, cell-based
G-361 [19] = assay: Induction of apoptosis in human G361 cells assessed as increase in caspase3/7 activity at 10 uM using Ac-DEVD-AMC substrate incubated for 24 hrs by fluorometric assay relative to untreated control; type: functional

Structure (SMILES)	Activity (G-361 [1])	Activity (G-361 [2])	IC50 (G-361 [3]) [µM]	IC50 (CCRF-CEM; Homo sapiens, CCRF-CEM, 72 h) [µM]	Activity (G-361 [4])	Activity (G-361 [5])	Activity (G-361 [7])	Activity (G-361 [8])	Activity (G-361 [9])	Activity (G-361 [10])	Activity (G-361 [11])	IC50 (MCF7) [µM]	IC50 (BJ) [µM]	IC50 (HeLa) [µM]	Activity (G-361 [12])	Activity (G-361 [14])	Activity (G-361 [15])	Activity (G-361 [16])	Activity (G-361 [17])	Activity (G-361 [18])	other results
CC(=O)O[C@H]1CC[C@]2(C)[C@H]3CC[C@@H]4C5=C(C(C)C)C(=O)C[C@]5(C(=O)OCC(=O)OCc5ccccc5)CC[C@@]4(C)[C@]3(C)CC[C@H]2C1(C)C	inactive	Active	1.6	6	inactive	Active	Active	inactive	inactive	Active	Active	1.8	> 50	2.8	Active	Active	Active	Active	Active	Active	fold change (FC) (G-361 [6]): 3; Activity (G-361 [13]): Active
CC(=O)O[C@H]1CC[C@]2(C)[C@H]3CC[C@@H]4C5=C(C(C)C)C(=O)C[C@]5(C(=O)OCCN5CCCCC5)CC[C@@]4(C)[C@]3(C)CC[C@H]2C1(C)C [listing 1 of 2 here]	inactive	Active	–	–	inactive	Active	Active	inactive	inactive	Active	–	–	–	–	Active	Active	Active	Active	Active	Active	–
CC(=O)O[C@H]1CC[C@]2(C)[C@H]3CC[C@@H]4C5=C(C(C)C)C(=O)C[C@]5(C(=O)OCCN5CCCCC5)CC[C@@]4(C)[C@]3(C)CC[C@H]2C1(C)C [listing 2 of 2 here]	–	–	7	–	–	–	–	–	–	–	–	7	49.1	8.7	–	–	–	–	–	–	IC50 (CCRF-CEM; ccrf-cem): 16.2 µM; fold change (FC) (G-361 [19]): <=4
C=C(C)[C@@H]1CC[C@]2(C(=O)O[C@@H]3O[C@H](COC(C)=O)[C@H](OC(C)=O)[C@H](OC(C)=O)[C@H]3OC(C)=O)CC[C@]3(C)[C@H](CC[C@@H]4[C@@]5(C)CC[C@H](O)C(C)(C)[C@@H]5CC[C@]43C)[C@@H]12	inactive	Active	3.4	9	inactive	Active	Active	inactive	inactive	Active	Active	2.5	> 50	3.3	Active	Active	Active	Active	Active	Active	Activity (G-361 [6]): inactive; Activity (G-361 [19]): inactive; Activity (G-361 [13]): Active
